Where no end group is shown, it is not given here.
Columns and labels:
DRA1*0101/DRB1*0101 = target: T1, DRA1*0101/DRB1*0101 (Homo sapiens, UniProt P01903+P01911, A100R/D57E/F55L/F60I/F76Y/I96L/L162R/M171V/P40L/Q125E/R42F/V115G/Y59C); assay: biochemical; type: binding
T1 construct: made in house

DRA1*0101/DRB1*0301 = DRA1*0101/DRB1*0301 (Homo sapiens, UniProt P01903+P01911, A100K/A102G/A103R/A169T/F55Y/I96L/K41T/L162R/M171V/P40S/Q125H/Q178H/Q39Y/R42S/S66N/T106N/T262R/W38E/Y61H); assay: biochemical; type: binding
DRA1*0101/DRB1*0302 = DRA1*0101/DRB1*0302 (Homo sapiens, UniProt P01903+P01911, A100K/A102G/A103R/A169T/D57E/F76Y/I96L/K41T/L162R/M171V/P40S/Q125H/Q178H/Q39Y/R42S/S66N/T106N/T262R/V115G/W38E/Y61H); assay: biochemical; type: binding
DRA1*0101/DRB1*0401 = target: T2, DRA1*0101/DRB1*0401 (Homo sapiens, UniProt P01903+P01911, A100K/A169T/F76Y/I96L/K127E/L162R/M171V/N62H/P40V/Q125Y/R42H/S133A/S149N/S66Y/V115G/V209L/W38E); assay: biochemical; type: binding
T2 construct: made in house

DRA1*0101/DRB3*0301 = DRA1*0101/DRB3*0301 (Homo sapiens, UniProt P01903+P79483, A169T/A212P/D57E/G115V/L67V/Q178H/R103Q/R40L/Y55F); assay: biochemical; type: binding
DRA1*0101/DRB5*0101 = target: T3, DRA1*0101/DRB5*0101 (Homo sapiens, UniProt P01903+Q30154); assay: biochemical; type: binding
T3 construct: made in house

DPA1*0103/DPB1*0401 = target: T4, DPA1*0103/DPB1*0401 (Homo sapiens, UniProt P04440+P20036); assay: biochemical; type: binding
T4 construct: made in house
T4 sequence (P20036 32-222 limits assumed): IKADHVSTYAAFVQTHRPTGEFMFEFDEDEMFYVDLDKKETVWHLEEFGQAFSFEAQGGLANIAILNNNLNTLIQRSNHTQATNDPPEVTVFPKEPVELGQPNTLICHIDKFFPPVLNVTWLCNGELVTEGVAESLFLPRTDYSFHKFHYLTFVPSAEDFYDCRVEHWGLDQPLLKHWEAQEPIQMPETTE
T4 sequence (P04440 30-225 limits assumed): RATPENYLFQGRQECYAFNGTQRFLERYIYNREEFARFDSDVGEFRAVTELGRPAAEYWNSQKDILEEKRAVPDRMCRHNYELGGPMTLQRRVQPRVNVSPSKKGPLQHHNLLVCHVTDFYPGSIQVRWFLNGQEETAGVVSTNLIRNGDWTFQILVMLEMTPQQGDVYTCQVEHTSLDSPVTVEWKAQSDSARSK

HLA-B7 = HLA-B7 (Homo sapiens, UniProt P01889); assay: biochemical; type: binding
[1] = tested on: PBMC from HLA-matched donors; type: cell-based, human
[2] = tested on: PBMC from responding donors; type: cell-based, human
HLA-A3 = HLA-A3 (Homo sapiens, UniProt P04439); assay: biochemical
freshly harvested PBMC = details: cited from earlier work

Sequence of HLA-B7 (P01889 25-299): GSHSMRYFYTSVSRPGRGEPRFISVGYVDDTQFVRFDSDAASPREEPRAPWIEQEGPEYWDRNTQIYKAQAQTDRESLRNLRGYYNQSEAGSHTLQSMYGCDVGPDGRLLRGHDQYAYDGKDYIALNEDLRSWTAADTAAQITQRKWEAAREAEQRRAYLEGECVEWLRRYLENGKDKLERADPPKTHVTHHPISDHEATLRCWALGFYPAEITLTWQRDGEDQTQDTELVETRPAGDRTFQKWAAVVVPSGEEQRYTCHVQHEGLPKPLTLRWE
Sequence of HLA-B7 (P61769 21-119, further chain): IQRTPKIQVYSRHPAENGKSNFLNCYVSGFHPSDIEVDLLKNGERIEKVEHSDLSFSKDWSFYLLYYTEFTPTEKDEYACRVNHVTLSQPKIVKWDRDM
Sequence of DRA1*0101/DRB1*0301 (P01903 26-254 limits assumed, other chains not shown): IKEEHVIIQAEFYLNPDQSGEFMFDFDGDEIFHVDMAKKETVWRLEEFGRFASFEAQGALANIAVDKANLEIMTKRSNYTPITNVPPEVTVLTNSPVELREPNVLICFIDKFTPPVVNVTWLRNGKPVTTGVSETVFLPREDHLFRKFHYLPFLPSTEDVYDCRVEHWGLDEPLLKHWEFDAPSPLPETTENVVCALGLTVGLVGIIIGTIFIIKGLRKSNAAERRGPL
Sequence of DRA1*0101/DRB3*0301 (P01903 26-254 limits assumed): as the sequence (P01903 26-254 limits assumed, other chains not shown) above
Sequence of DRA1*0101/DRB3*0301 (P79483 30-266 R40L/Y55F/D57E/L67V/R103Q/G115V/A169T/Q178H/A212P limits assumed): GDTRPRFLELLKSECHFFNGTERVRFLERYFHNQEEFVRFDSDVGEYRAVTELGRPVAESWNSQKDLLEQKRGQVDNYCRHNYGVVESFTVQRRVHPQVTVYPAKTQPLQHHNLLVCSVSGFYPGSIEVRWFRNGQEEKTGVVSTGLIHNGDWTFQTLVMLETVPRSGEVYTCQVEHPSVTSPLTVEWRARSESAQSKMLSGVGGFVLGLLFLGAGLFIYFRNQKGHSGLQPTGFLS
Sequence of HLA-A3 (P04439 25-299): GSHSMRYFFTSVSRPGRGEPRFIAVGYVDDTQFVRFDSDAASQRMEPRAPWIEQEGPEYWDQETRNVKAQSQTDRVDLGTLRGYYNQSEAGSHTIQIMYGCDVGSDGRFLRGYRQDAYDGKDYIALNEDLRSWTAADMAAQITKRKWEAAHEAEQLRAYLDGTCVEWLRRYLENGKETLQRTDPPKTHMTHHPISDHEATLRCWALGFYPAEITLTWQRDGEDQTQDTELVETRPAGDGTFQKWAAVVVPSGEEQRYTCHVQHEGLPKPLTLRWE
Sequence of HLA-A3 (P61769 21-119, further chain): as the sequence (P61769 21-119, further chain) above

Sequence	Kd (DRA1*0101/DRB1*0101) [µM]	Kd (DRA1*0101/DRB1*0301) [µM]	Kd (DRA1*0101/DRB1*0302) [µM]	Kd (DRA1*0101/DRB1*0401) [µM]	Kd (DRA1*0101/DRB3*0301) [µM]	Kd (DRA1*0101/DRB5*0101) [µM]	Kd (DPA1*0103/DPB1*0401) [µM]	Kd (HLA-B7) [µM]	+Peptide, IFNγ spot forming cell numbers [1] [per 10^5 PBMC]	SFC/1×10^5 PBMC+Peptide, IVA12 [2] [SFC/1×10^5 PBMC]	SFC/1×10^5 PBMC+Peptide, Isotype [2] [SFC/1×10^5 PBMC]	SFC/1×10^5 PBMC+Peptide, W6/32 [2] [SFC/1×10^5 PBMC]	Kd (HLA-A3) [µM]	antigenicity in ELISPOT of Assarsson et al (freshly harvested PBMC)
LVSLGAISF [PF-148]	4.34	> 5	> 5	> 5	> 5	> 5	> 5	–	–	–	–	–	–	–
YVKQNTLKL [PF-152]	1.2	> 5	2.22	0.226	0.356	0.405	> 5	0.072	–	–	–	–	–	–
ILWILDRLF [PF-140]	–	–	–	–	–	–	–	–	17±4	1±1	32±3	43±19	–	–
YKYVKQNTLKLAT [HA306–318, reference compound]	0.108	0.026	0.053	0.015	0.003	0.012	> 5	–	–	–	–	–	–	–
LPFHNVHPL [PF-147]	> 5	> 5	> 5	> 5	> 5	3.7	> 5	0.006	–	–	–	–	–	–
IMLKANFSV [PF-103]	3.43	> 5	> 5	1.39	0.018	> 5	> 5	–	–	–	–	–	–	–
YPRYPGVRC [PF-145]	–	–	–	–	–	–	–	0.011	–	–	–	–	–	–
YILLKKILSSRFNQM [hypothetical protein 239–253, reference compound]	–	–	–	–	–	0.017	0.025	–	–	–	–	–	–	–
TIHDRIPHR [PF-116]	–	–	–	–	–	–	–	–	–	–	–	–	0.062	–
IAPWYAFAL [PF-154]	> 5	> 5	> 5	> 5	> 5	1.7	> 5	–	–	–	–	–	–	–
ETIVLLRAF [PF-113]	3.73	> 5	> 5	> 5	> 5	0.78	> 5	–	–	–	–	–	–	–
DPLVVAASI [PF-146]	–	–	–	–	–	–	–	–	42±8	2±2	17±1	18±3	–	failed to show antigenicity
VTIGECPKY [PF-110]	–	–	–	–	–	–	–	–	247±13	5±3	163±28	165±4	–	–
LPFQNVHPV [PF-150]	> 5	> 5	> 5	> 5	> 5	1.2	> 5	0.161	–	–	–	–	–	–
LMNELGVPF [PF-141]	> 5	> 5	> 5	> 5	4.01	> 5	> 5	–	–	–	–	–	–	–

Reference: paper PMC2866539, “HLA Class I Binding 9mer Peptides from Influenza A Virus Induce CD4^+ T Cell Responses” (PLoS ONE, 2010)
